Results: patent US7381705B2, “Inhibitors of hepatitis C virus” (The Administrators Of The Tulane Educational Fund, priority 2004, dated 2008)
Read-outs that look alike come from different tables or passages of the source. Peptide text beside a SMILES is read from it.

System: HCV pseudotype (HIV core proteins, HCV E1 and E2 of strain H77)
Details: for Percent inhibition: 25 μM
[1] = HCV H77 1a E2 peptides at ~25 μM, Table 7, virus alone 448,123
[2] = HCV J4 1b E2 peptides at ~25 μM, Table 8, controls as in Table 7

SMILES	Percent inhibition	Luciferase units [1]	Luciferase units [2]
CC[C@H](C)[C@H](NC(=O)CNC(=O)[C@H](CS)NC(=O)[C@@H]1CCCN1C(=O)[C@H](CCCNC(=N)N)NC(=O)[C@@H]1CCCN1C(=O)[C@@H]1CCCN1C(=O)[C@H](Cc1ccc(O)cc1)NC(=O)[C@H](Cc1c[nH]cn1)NC(=O)[C@H](Cc1c[nH]c2ccccc12)NC(=O)[C@H](CS)NC(=O)[C@H](Cc1ccc(O)cc1)NC(=O)[C@@H]1CCCN1)C(=O)N[C@H](C(=O)N1CCC[C@H]1C(=O)N[C@@H](C)C(=O)N[C@@H](CCCCN)C(=O)N[C@@H](CO)C(=O)O)C(C)C [compound 15, PYCWHYPPRPCGIVPAKS] (H-PYCWHYPPRPCGIVPAKS-OH; N-terminus and C-terminus assumed)	43.5%	253,410 luciferase units (lumens)	
CC[C@H](C)[C@H](NC(=O)CNC(=O)[C@H](CS)NC(=O)[C@@H]1CCCN1C(=O)[C@H](CCCNC(=N)N)NC(=O)[C@@H]1CCCN1)C(=O)N[C@H](C(=O)N1CCC[C@H]1C(=O)N[C@@H](C)C(=O)N[C@@H](CCCCN)C(=O)N[C@@H](CO)C(=O)N[C@H](C(=O)N[C@@H](CS)C(=O)NCC(=O)N1CCC[C@H]1C(=O)N[C@H](C(=O)N[C@@H](Cc1ccc(O)cc1)C(=O)N[C@@H](CS)C(=O)O)C(C)C)C(C)C)C(C)C [compound 16, PRPCGIVPAKSVCGPVYC] (H-PRPCGIVPAKSVCGPVYC-OH; N-terminus and C-terminus assumed)	10.0%	403,430 luciferase units (lumens)	
CC(C)[C@H](NC(=O)[C@@H](NC(=O)[C@@H]1CCCN1C(=O)[C@H](CO)NC(=O)[C@@H]1CCCN1C(=O)[C@@H](NC(=O)[C@H](Cc1ccccc1)NC(=O)[C@H](CS)NC(=O)[C@H](Cc1ccc(O)cc1)NC(=O)[C@@H](NC(=O)[C@@H]1CCCN1C(=O)CNC(=O)[C@H](CS)NC(=O)[C@@H](NC(=O)[C@H](CO)NC(=O)[C@H](CCCCN)NC(=O)[C@H](C)NC(=O)[C@@H]1CCCN1)C(C)C)C(C)C)[C@@H](C)O)C(C)C)C(=O)O [compound 17, PAKSVCGPVYCFTPSPVV] (H-PAKSVCGPVYCFTPSPVV-OH; N-terminus and C-terminus assumed)	43.2%	254,516 luciferase units (lumens)	
CC[C@H](C)[C@H](NC(=O)[C@@H](NC(=O)[C@H](CS)NC(=O)[C@@H]1CCCN1)C(C)C)C(=O)NCC(=O)NCC(=O)N[C@H](C(=O)NCC(=O)N[C@@H](CC(N)=O)C(=O)N[C@@H](CC(N)=O)C(=O)N[C@H](C(=O)N[C@@H](CC(C)C)C(=O)N[C@@H](CC(C)C)C(=O)N[C@@H](CS)C(=O)N1CCC[C@H]1C(=O)N[C@H](C(=O)N[C@@H](CC(=O)O)C(=O)N[C@@H](CS)C(=O)O)[C@@H](C)O)[C@@H](C)O)C(C)C [compound 26, PCVIGGVGNNTLLCPTDC] (H-PCVIGGVGNNTLLCPTDC-OH; N-terminus and C-terminus assumed)	51.6%	216,706 luciferase units (lumens)	
CC[C@H](C)[C@H](NC(=O)[C@@H](NC(=O)[C@H](CC(C)C)NC(=O)[C@H](CC(N)=O)NC(=O)[C@H](CCC(=O)O)NC(=O)[C@H](CC(C)C)NC(=O)[C@H](C)NC(=O)[C@H](C)NC(=O)[C@H](CCC(=O)O)NC(=O)[C@H](C)NC(=O)[C@H](CCC(N)=O)NC(=O)[C@H](CO)NC(=O)[C@@H](NC(=O)[C@H](CC(C)C)NC(=O)[C@H](CC(C)C)NC(=O)[C@H](CCSC)NC(=O)[C@H](CCSC)NC(=O)[C@@H](N)Cc1c[nH]c2ccccc12)[C@@H](C)CC)C(C)C)C(=O)O [compound 50, WMMLLISQAEAALENLVI]	87.9%	58,790 luciferase units (lumens)	
CC[C@H](C)[C@H](NC(=O)[C@H](Cc1c[nH]cn1)NC(=O)[C@H](Cc1c[nH]c2ccccc12)NC(=O)[C@H](CO)NC(=O)CNC(=O)[C@H](CC(N)=O)NC(=O)[C@@H](NC(=O)[C@H](CC(N)=O)NC(=O)[C@@H](NC(=O)[C@H](CC(C)C)NC(=O)[C@H](CCC(N)=O)NC(=O)[C@@H](NC(=O)[C@H](CCCCN)NC(=O)[C@H](CCC(N)=O)NC(=O)[C@H](CO)NC(=O)[C@H](C)N)[C@@H](C)CC)C(C)C)[C@@H](C)O)C(=O)N[C@@H](CC(N)=O)C(=O)N[C@@H](CCCNC(=N)N)C(=O)O [compound 83, ASQKIQLVNTNGSWHINR]	−15.8%		518,993 luciferase units (lumens)
CC[C@H](C)[C@H](NC(=O)[C@@H](N)Cc1c[nH]cn1)C(=O)N[C@@H](CC(N)=O)C(=O)N[C@@H](CCCNC(=N)N)C(=O)N[C@H](C(=O)N[C@@H](C)C(=O)N[C@@H](CC(C)C)C(=O)N[C@@H](CC(N)=O)C(=O)N[C@@H](CS)C(=O)N[C@@H](CC(N)=O)C(=O)N[C@@H](CC(=O)O)C(=O)N[C@@H](CO)C(=O)N[C@@H](CC(C)C)C(=O)N[C@@H](CCC(N)=O)C(=O)N[C@H](C(=O)NCC(=O)N[C@@H](Cc1ccccc1)C(=O)N[C@@H](Cc1ccccc1)C(=O)O)[C@@H](C)O)[C@@H](C)O [compound 84, HINRTALNCNDSLQTGFF]	12.5%		392,023 luciferase units (lumens)
CC(C)C[C@H](NC(=O)[C@H](C)NC(=O)[C@H](C)NC(=O)[C@H](Cc1ccccc1)NC(=O)[C@H](Cc1ccccc1)NC(=O)CNC(=O)[C@@H](NC(=O)[C@H](CCC(N)=O)NC(=O)[C@H](CC(C)C)NC(=O)[C@H](CO)NC(=O)[C@H](CC(=O)O)NC(=O)[C@H](CC(N)=O)NC(=O)[C@H](CS)NC(=O)[C@@H](N)CC(N)=O)[C@@H](C)O)C(=O)N[C@@H](Cc1ccccc1)C(=O)N[C@@H](Cc1ccc(O)cc1)C(=O)N[C@@H](C)C(=O)N[C@@H](Cc1c[nH]cn1)C(=O)O [compound 85, NCNDSLQTGFFAALFYAH]	74.9%		112,260 luciferase units (lumens)
CC(C)[C@H](NC(=O)CNC(=O)[C@H](CS)NC(=O)[C@@H]1CCCN1C(=O)[C@H](CCCNC(=N)N)NC(=O)[C@@H]1CCCN1)C(=O)N[C@H](C(=O)N1CCC[C@H]1C(=O)N[C@@H](C)C(=O)N[C@@H](CO)C(=O)N[C@@H](CCC(N)=O)C(=O)N[C@H](C(=O)N[C@@H](CS)C(=O)NCC(=O)N1CCC[C@H]1C(=O)N[C@H](C(=O)N[C@@H](Cc1ccc(O)cc1)C(=O)N[C@@H](CS)C(=O)O)C(C)C)C(C)C)C(C)C [compound 92, PRPCGVVPASQVCGPVYC] (H-PRPCGVVPASQVCGPVYC-OH; N-terminus and C-terminus assumed)	16.9%		372,400 luciferase units (lumens)
CSCC[C@H](NC(=O)[C@@H](NC(=O)[C@H](CC(=O)O)NC(=O)[C@@H](NC(=O)[C@@H](N)CCC(=O)O)[C@@H](C)O)C(C)C)C(=O)N[C@@H](CC(C)C)C(=O)N[C@@H](CC(C)C)C(=O)N[C@@H](CC(N)=O)C(=O)N[C@@H](CC(N)=O)C(=O)N[C@H](C(=O)N[C@@H](CCCNC(=N)N)C(=O)N1CCC[C@H]1C(=O)N1CCC[C@H]1C(=O)N[C@@H](CCC(N)=O)C(=O)NCC(=O)N[C@@H](CC(N)=O)C(=O)N[C@@H](Cc1c[nH]c2ccccc12)C(=O)N[C@@H](Cc1ccccc1)C(=O)O)[C@@H](C)O [compound 98, ETDVMLLNNTRPPQGNWF]	−4.4%		467,636 luciferase units (lumens)
CSCC[C@H](NC(=O)[C@H](Cc1c[nH]c2ccccc12)NC(=O)[C@@H](NC(=O)[C@H](CS)NC(=O)CNC(=O)[C@H](Cc1ccccc1)NC(=O)[C@H](Cc1c[nH]c2ccccc12)NC(=O)[C@H](CC(N)=O)NC(=O)CNC(=O)[C@H](CCC(N)=O)NC(=O)[C@@H]1CCCN1C(=O)[C@@H]1CCCN1C(=O)[C@H](CCCNC(=N)N)NC(=O)[C@@H](NC(=O)[C@H](CC(N)=O)NC(=O)[C@@H](N)CC(N)=O)[C@@H](C)O)[C@@H](C)O)C(=O)N[C@@H](CC(N)=O)C(=O)N[C@@H](CO)C(=O)O [compound 99, NNTRPPQGNWFGCTWMNS]	75.2%		111,043 luciferase units (lumens)
CC[C@H](C)[C@H](NC(=O)[C@H](CC(N)=O)NC(=O)[C@H](CS)NC(=O)[C@@H]1CCCN1)C(=O)NCC(=O)NCC(=O)N[C@H](C(=O)NCC(=O)N[C@@H](CC(N)=O)C(=O)N[C@@H](CCCNC(=N)N)C(=O)N[C@H](C(=O)N[C@@H](CC(C)C)C(=O)N[C@H](C(=O)N[C@@H](CS)C(=O)N1CCC[C@H]1C(=O)N[C@H](C(=O)N[C@@H](CC(=O)O)C(=O)N[C@@H](CS)C(=O)O)[C@@H](C)O)[C@@H](C)CC)[C@@H](C)O)C(C)C [compound 102, PCNIGGVGNRTLICPTDC] (H-PCNIGGVGNRTLICPTDC-OH; N-terminus and C-terminus assumed)	15.8%		377,216 luciferase units (lumens)
CSCC[C@H](N)C(=O)N[C@@H](Cc1ccc(O)cc1)C(=O)N[C@H](C(=O)NCC(=O)NCC(=O)N[C@H](C(=O)N[C@@H](CCC(=O)O)C(=O)N[C@@H](Cc1c[nH]cn1)C(=O)N[C@@H](CCCNC(=N)N)C(=O)N[C@@H](CC(C)C)C(=O)N[C@@H](CC(N)=O)C(=O)N[C@@H](C)C(=O)N[C@@H](C)C(=O)N[C@@H](CS)C(=O)N[C@@H](CC(N)=O)C(=O)N[C@@H](Cc1c[nH]c2ccccc12)C(=O)N[C@H](C(=O)N[C@@H](CCCNC(=N)N)C(=O)O)[C@@H](C)O)C(C)C)C(C)C [compound 110, MYVGGVEHRLNAACNWTR]	−34.5%		602,506 luciferase units (lumens)
CC(C)C[C@H](NC(=O)[C@H](CCC(=O)O)NC(=O)[C@H](CO)NC(=O)[C@H](CCCNC(=N)N)NC(=O)[C@H](CC(=O)O)NC(=O)[C@H](CCCNC(=N)N)NC(=O)[C@H](CC(=O)O)NC(=O)[C@H](CCC(=O)O)NC(=O)[C@H](CC(C)C)NC(=O)[C@H](CC(N)=O)NC(=O)[C@H](CS)NC(=O)[C@H](CCCNC(=N)N)NC(=O)[C@H](CCC(=O)O)NC(=O)CNC(=O)[C@H](CCCNC(=N)N)NC(=O)[C@@H](NC(=O)[C@H](Cc1c[nH]c2ccccc12)NC(=O)[C@@H](N)CC(N)=O)[C@@H](C)O)C(=O)O [compound 112, NWTRGERCNLEDRDRSEL]	−17.8%		527,950 luciferase units (lumens)
